Among the data in patent publication EP4428122A1, “SORTILINE MODULATORS” (Vesper Bio Aps, priority 2023, dated 2024) are Kd and IC50 values, retold here.

Broadly, the Kd is a measure of binding affinity in units of concentration. The term IC50 denotes the concentration that inhibits the measured activity by half. Low readings indicate greater potency, high ones weaker potency.

In assay [1] the target is T1, Human (6-His)Sortilin (Homo sapiens, UniProt Q99523).
T1 construct: purchased RnD Systems
T1 sequence (Q99523 78-831): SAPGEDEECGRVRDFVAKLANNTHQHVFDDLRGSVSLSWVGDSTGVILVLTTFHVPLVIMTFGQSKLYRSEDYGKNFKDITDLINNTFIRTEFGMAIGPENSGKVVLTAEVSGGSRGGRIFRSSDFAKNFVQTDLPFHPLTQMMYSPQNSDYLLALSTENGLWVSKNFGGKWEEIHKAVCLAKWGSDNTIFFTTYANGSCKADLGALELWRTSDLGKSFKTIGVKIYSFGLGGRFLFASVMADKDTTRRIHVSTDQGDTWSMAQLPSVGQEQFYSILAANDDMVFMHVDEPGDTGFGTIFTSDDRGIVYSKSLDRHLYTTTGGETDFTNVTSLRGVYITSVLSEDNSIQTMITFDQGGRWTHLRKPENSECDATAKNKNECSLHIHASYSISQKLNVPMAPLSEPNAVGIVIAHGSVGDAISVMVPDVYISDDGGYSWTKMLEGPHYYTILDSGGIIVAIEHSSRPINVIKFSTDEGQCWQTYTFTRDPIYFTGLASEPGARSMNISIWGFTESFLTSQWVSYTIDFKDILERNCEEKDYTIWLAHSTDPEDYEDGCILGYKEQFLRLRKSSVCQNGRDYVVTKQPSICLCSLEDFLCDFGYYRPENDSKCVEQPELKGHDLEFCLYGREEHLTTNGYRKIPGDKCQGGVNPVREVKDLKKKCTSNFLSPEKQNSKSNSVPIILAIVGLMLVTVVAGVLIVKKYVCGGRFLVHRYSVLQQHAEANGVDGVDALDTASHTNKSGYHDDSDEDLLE
Description: Human Sortilin GCI (Grating-Coupled Interferometry) binding assay. Particulars: Creoptix WAVE-RAPID, single concentration, immobilised Human (6-His)Sortilin, 1:1 kinetic binding model; read-out: h-Sortilin GCI KD. On the procedure: The exemplified compounds of the invention were tested in a Grating-Coupled Interferometry (GCI) Sortilin binding assay. The Equilibrium dissociation constant (KD) is a measure of the propensity of a complex (i.e: a ligand and receptor) to dissociate and is used to describe the affinity of an interaction between the constituents of the complex (i.e: a ligand and receptor). The skilled person will recognise that the lower the KD value, the less of the compound needed to achieve the desired effect, and as a result, the chances of undesirable off-target effects are reduced.
Compound affinity was determined by measuring the association and dissociation of compounds to Human (6-His)Sortilin (RnD Systems) using a Creoptix Wave instrument (Creoptix - Malvern Panalytical). Both Human (6-His)Sortilin immobilisation and compound evaluation were performed in HBS-N running buffer: 10 mM HEPES pH 7.4, 150 mM NaCl, 1 % DMSO - Cytiva which was filtered and degassed for 15 minutes before use.
A 4PCH WAVEchip (Creoptix - Malvern Panalytical) was conditioned prior to immobilisiation using 0.2x HBS-N running buffer with 0.1 M Borate pH 9.0, 1 M NaCl (Xantec Bioanalytics) injected across all flow cells. A buffer exchange was performed to 1x HBS-N running buffer and Human (6-His)Sortilin was immobililised in pH 5.0 Acetate solution (Cytiva) via amine coupling following EDC/NHS (Cytiva) surface activation and then passivated via injection of 50 mM Tris pH 7.4.
Compounds were tested in 'WAVE-RAPID' assays at a single concentration (usually: 1 µM, 10 µM or 100 µM) in time-response format (short pulses of increasing duration) using either 'Weak-Binders' (Settings: 400 µl/min flow rate, 40 Hz acquisiton rate, 5 seconds association time and 20 seconds dissociation time) or 'Intermediate Binders' (Settings: 100 µl/min flow rate, 10 Hz acquisiton rate, 25 seconds association time and 300 seconds dissociation time) settings. Which was deemed most appropriate was based upon the affinity and kinetics of the compound tested.
DMSO calibration was performed as per manufacturers requirements by injection of running buffer containing DMSO 0.5% above that of the running buffer DMSO (1.5 % in that instance) every 20 cycles. All data was double referenced (blank and reference-channel subtracted) with KD values calculated by fitting to a `1:1 kinetic' binding model using 'WAVEcontrol' software (Creoptix - Malvern Panalytical).

Assay [2] addresses T2, h-Sortilin (Homo sapiens, UniProt Q99523).
T2 sequence (Q99523 78-831): T1 sequence (Q99523 78-831)
Description: Neurotensin scintillation proximity assay (SPA), displacement of [3H]-neurotensin binding. Particulars: 150 nM 6his-Sortilin, 5 nM [3H]-Neurotensin, 8 concentrations, average of at least 2 determinations. How it is done:
The exemplified compounds of the invention were tested in a Neurotensin (NTS) scintillation proximity assay (SPA). NTS, which is a 13 amino acid neuropeptide, is a sortilin ligand. The IC50 is a measure of the amount of the compound required to inhibit the binding of NTS to sortilin by 50%. The skilled person will recognise that the lower the IC50 value, the less of the compound needed to achieve the desired effect, and as a result, the chances of undesirable off-target effects are reduced.
Compound affinity was determined by measuring the displacement of [^3H]-neurotensin binding to h-Sortilin in SPA format. Total volume of 40 µl in 50 mM HEPES pH 7.4 assay buffer containing 100 mM NaCl, 2.0 mM CaCl2, 0.1% BSA and 0.1% Tween-20. Compound pre-incubation for 30 minutes at room temperature with 150 nM of 6his-Sortilin before 5 nM [3H]-Neurotensin and Ni chelate imaging beads (Perkin Elmer) were added, after 6 hours the plate was read on a ViewLux with 360 s exposure time. Dose-response evaluation of compounds was performed with 8 concentrations of drugs (covering 3 decades). IC50 values were calculated by nonlinear regression using the sigmoid concentration-response (variable slope) using CDD Vault software. All values reported are average of at least 2 determinations.
(Scintillation proximity formats need no separation of bound from free tracer.)

Regarding `CC(C)(C)CCC(C)(NCc1ccc2c(c1)COCC2)C(=O)O` (racemic) [Example 8, 2-{[(7-isochromanyl)methyl]amino}-2,5,5-trimethylhexanoic acid], in assay [1], the dissociation constant Kd came out at 587 nM.

With `CC(C)(C)CCC(C)(NCc1ccc2c(c1)CCOC2)C(=O)O` (racemic) [Example 7, 2-{[(6-isochromanyl)methyl]amino}-2,5,5-trimethylhexanoic acid], in assay [1], the Kd came to 509 nM.

On to `CC(C)(C)CCC(C)(NCc1ccc2c(c1)CCCO2)C(=O)O` (racemic) [Example 6, 2-{[(6-chromanyl)methyl]amino}-2,5,5-trimethylhexanoic acid], for which, in assay [1], the Kd is 760 nM.

Take `CC(C)(C)CCC(C)(NCc1ccc2c(c1)CCC2)C(=O)O` (racemic) [Example 4, 2-{[(5-indanyl)methyl]amino}-2,5,5-trimethylhexanoic acid]: in assay [2], the concentration for half-maximal inhibition (IC50) is 1070 nM.

Consider `CC(C)(C)CCC(C)(NCc1ccc2c(c1)CCCC2)C(=O)O` (stereo not drawn) [Example 1, 2,5,5-trimethyl-2-(((5,6,7,8-tetrahydronaphthalen-2-yl)methyl)amino)hexanoic acid], for which, in assay [1], the dissociation constant Kd was 304 nM. Also, the half-inhibitory concentration (IC50) in assay [2] was determined as 740 nM.

For `CC(C)(C)CCC(C)(NCc1ccc2c(c1)OCCC2)C(=O)O` (racemic) [Example 5, 2-{[(7-chromanyl)methyl]amino}-2,5,5-trimethylhexanoic acid], in assay [1], the Kd was 713 nM.

As for `CC(C)(C)CC[C@](C)(NCc1ccc2c(c1)CCCC2)C(=O)O` [Example 2, (S)-2,5,5-trimethyl-2-(((5,6,7,8-tetrahydronaphthalen-2-yl)methyl)amino)hexanoic acid], in assay [1], the Kd came out at 79 nM. The compound further had an IC50 in assay [2] of 440 nM.
